# Paper PMC11605156, “Triterpenoids from Ganoderma lucidum inhibit cytochrome P450 enzymes interfering with the metabolic process of specific clinical drugs” (Frontiers in Pharmacology, 2024)
# Tests used:
# CYP2C9 = CYP2C9 (Homo sapiens, UniProt P11712); experiment: CYP2C9 inhibition, probe/drug metabolism in human liver microsomes
# Procedure: The total volume of the in vitro metabolic incubation system is 200 μL. The probe substrate concentration in the system is shown in Supplementary Table S1. […] The reaction sample was preheated in a constant temperature mixer at 37°C. Then NADP^+ was added to the system to initiate the reaction. The reaction time is 30 min, and 100 μL acetonitrile will be added on time to quickly terminate the reaction, followed by centrifugation at 4°C and 20,000 g for 20 min. The supernatant was analyzed using liquid chromatography tandem mass spectrometry (LC-MS/MS), and the activity of CYP enzymes was evaluated by the generation of probe metabolites. The mass spectrometry information of probe substrates is shown in Supplementary Table S3.
# The isolated triterpenoids (1–66) were used to establish a compounds library. The inhibitory effects of 66 triterpenoids from G. lucidum on seven subtypes of CYP enzymes (CYP1A2, 2A6, 2D6, 2B6, 2C9, 2C19, 3A4) were evaluated followed the above-mentioned experimental procedures.
# For 16 clinical drugs metabolized by CYP enzymes, potential DDI studies were conducted on triterpenoids (6, 25) of G. lucidum, and IC50 values were measured.
# Clinical drugs: Phenacetin, melatonin, clozapine and riluzole are metabolized by CYP1A2. Bupropion, artemisinin, efavirenz and sertraline are metabolized by CYP2B6. Diclofenac, valsartan, glimepiride and glibenclamide are metabolized by CYP2C9. Midazolam, imatinib, simvastatin and diltiazem are metabolized by CYP3A4.
# Table S1. The information of probes for CYPs activity assay
# (§1) Table S2. Information of clinical drugs
# CYP3A4, CYP2B6, CYP2C9 = experiment: in vitro; type: in vitro ADME; settings: human
# Procedure: Bupropion, artemisinin, efavirenz and sertraline are metabolized by CYP2B6. Diclofenac, valsartan, glimepiride and glibenclamide are metabolized by CYP2C9. Midazolam, imatinib, simvastatin and diltiazem are metabolized by CYP3A4.
# as §1
# CYP subtype Drugs Metabolite Concentration Incubation time
# CYP1A2 Melatonin 6-hydroxyl-melatonin 5 μM 30 min
# Clozaril Demethyl-clozaril 10 μM 20 min
# Riluzole Hydroxy-riluzole 5 μM 60 min
# Phenacetin Deacetyl-phenacetin 40 μM 30 min
# CYP2B6 Bupropion 4'-hydroxyl-bupropion 75 μM 30 min
# Artemisinin Dihydroartemisinin 10 μM 30 min
# Sertraline Demethyl-sertraline 5 μM 30 min
# Efavirenz 8-hydroxyl-efavirenz 20 μM 30 min
# CYP2C9 Diclofenac 4'-hydroxyl-diclofenac 4 μM 30 min
# Valsartan 4-hydroxyl-valsartan 30 μM 30 min
# Glimepiride Hydroxyl-glimepiride 50 μM 30 min
# Glibenclamide Hydroxyl-glibenclamide 50 μM 30 min
# CYP3A4 Midazolam 1'-hydroxyl-midazolam 5 μM 30 min
# Simvastatin 6'-β-hydroxyl-simvastatin 10 μM 30 min
# Diltiazem Demethyl-diltiazem 10 μM 30 min
# Imatinib Demethyl-imatinib 5 μM 30 min
# CYP2C9, sequence (P11712 whole entry): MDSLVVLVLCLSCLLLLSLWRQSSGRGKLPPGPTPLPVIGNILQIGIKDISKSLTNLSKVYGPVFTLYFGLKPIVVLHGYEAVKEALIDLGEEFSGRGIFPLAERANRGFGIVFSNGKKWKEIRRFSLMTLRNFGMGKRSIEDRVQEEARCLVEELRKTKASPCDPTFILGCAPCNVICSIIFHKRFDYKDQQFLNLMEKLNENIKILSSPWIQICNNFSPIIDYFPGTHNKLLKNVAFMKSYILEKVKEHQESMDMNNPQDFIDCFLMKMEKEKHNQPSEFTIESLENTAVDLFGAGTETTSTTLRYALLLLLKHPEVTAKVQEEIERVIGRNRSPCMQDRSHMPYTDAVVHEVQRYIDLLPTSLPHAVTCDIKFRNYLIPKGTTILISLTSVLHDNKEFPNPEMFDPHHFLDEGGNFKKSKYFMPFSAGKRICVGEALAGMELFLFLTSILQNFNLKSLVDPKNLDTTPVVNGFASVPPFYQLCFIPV
smiles,measurement,setting,value
"CC(CCC(O)C(C)(O)CO)C1CCC2(C)C3=C(C(=O)CC12C)C1(C)CCC(=O)C(C)(C)C1CC3 (stereo not drawn) [Compound 25, ganodrol C]",IC50,"CYP2C9; IC50 against metabolism of glibenclamide mediated by CYP2C9, substrate glibenclamide 50 μM, 30 min",10.3 ± 0.12 µM
same,IC50,"CYP2C9; IC50 against metabolism of glimepiride mediated by CYP2C9, substrate glimepiride 50 μM, 30 min",12.3 ± 0.43 µM
same,IC50,"CYP2C9; IC50 against metabolism of valsartan mediated by CYP2C9, substrate valsartan 30 μM, 30 min",14.3 ± 1.14 µM
same,IC50 at 30 min,"CYP2C9; human, human liver microsomes, pH 7.4, probe diclofenac 4 μM, IC50 against CYP 2C9, substrate diclofenac 4 μM, HLM",11.4 µM
same,activity at 30 min,"CYP2C9; human, human liver microsomes, pH 7.4, probe diclofenac 4 μM, Residual activity (%) CYP2C9, HLM 0.5 mg/mL, diclofenac 4 μM, 30 min",32 ± 2.74%
same,IC50 at 30 min,"CYP3A4, CYP2B6, CYP2C9",4.5 to 25.3 µM
